Values of other authors as cited in publication PMC11696226 (Nature Communications, 2025).
Where two headings read alike, the source gives them in different places.

System: metastatic TNBC / breast cancer

Compound	median OS (TNBC, pooled EMBRACE and Study 301)	median PFS (TNBC, pooled EMBRACE and Study 301, 199 patients)	median OS (ASCENT, metastatic TNBC)	median PFS (ASCENT, metastatic TNBC, ≥2 lines of chemotherapy)	HR for OS vs conventional chemotherapy (ASCENT, p < 0.001)	HR for PFS vs conventional chemotherapy (ASCENT, p < 0.001)
C=C1C[C@@H]2CC[C@@]34C[C@H]5O[C@H]6[C@@H](O3)[C@H]3O[C@H](CC[C@@H]3O[C@H]6[C@H]5O4)CC(=O)C[C@@H]3[C@@H](OC)[C@@H](C[C@H](O)CN)O[C@H]3C[C@H]3O[C@@H](CC[C@@H]1O2)C[C@@H](C)C3=C [eribulin]	12.4 month	2.8 month	–	–	–	–
SG: antibody-drug conjugate	–	–	12.1 months	5.6 months	0.48	0.41
